Values joined by “and” are separate entries in the source; they are usually repeats but may differ in a detail not shown here. Identical values can stand only once.
What was measured:
[1] = Oral bioavailability in dogs; format: in vivo, beagle dogs; conditions: 1.4 μmol/kg p.o.
Procedure: Assay: The compound was given to N=3 male beagle dogs in tritiated form:
The concentration of the compound in blood was determined by LC-RID. The procedure involved the addition of 5 μg of the compound as internal standard (200 μL of solution containing 25 μg/mL of the compound) to 1 mL of blood. After further addition of 1 mL of water, 0.1 mL of buffer pH 9 and 4 mL of tert-butylmethylether, the samples were shaken for 30 min and centrifuged (4000 g for 10 min at 22° C.). The organic phase was transferred into a tube and evaporated in a Speedvac. The residue was reconstituted in 250 μL of mobile phase-water (80:20 v/v) followed by 75 μL of n-hexane and transferred into an autosampler vial. After centrifugation (13,000 g for 2 min at 22° C.), the hexane layer was pipetted off and discarded, 200 μL of the remainder was injected onto an RP18 column (Waters XTerra, 5 μm, 3.9×150 mm at 40° C.) to separate the compound from potential metabolites and endogenous compounds. The mobile phase of ammonium acetate (10 mM: 0.1% v/v TFA-acetonitrile, 58:42 v/v) was used at a flow rate of 1.0 mL/min. The effluent was monitored by a UV-detector set at 261 nm. The peak corresponding to the unchanged compound was collected in a polyethylene vial by a fraction collector (SuperFrac, Pharmacia LKB) and analyzed for radioactivity. The concentration of the compound in each sample was calculated from the ratio of the amount of radioactivity in the eluate fraction to the area of the ultraviolet absorbance of the non-radiolabeled the compound, that was used as the internal standard.

[2] = Pharmacokinetics in rats after oral administration; format: in vivo, Wistar rats; conditions: 10 mg/kg oral
Procedure: If a salt forming agent is used (e.g. fumarate), a corresponding higher amount of the salt will be used to achieve the intended dosing.
Both compounds were dissolved in Klucel™ (0.5% in water) and were orally administered by gavage (5 ml/kg) to conscious rats (n=8, cross-over design).
K3-EDTA blood (˜0.2 ml) was collected by puncture of a sublingual vein under light isoflurane anesthesia at the following time points: 0.25, 0.5, 1, 2, 3, 4, 6, 8, 24 h post dose. Immediately after sampling, blood samples were put on ice and were processed to plasma by centrifugation at 4° C. within 15 min after sampling (1000 g, 10 min, 4° C.) to obtain ˜100 μl plasma/sample. All plasma samples were stored at −80° C. until analysis. Since the PK study was performed in a cross-over design, a recovery period of approximately 2 weeks took place before the next treatment/blood sampling was performed.
The determination of compounds in plasma was done by LC-MS/MS using electrospray ionization.

[3] = Hygroscopicity (moisture gain at relative humidity); format: physicochemical; parameters: Hygroscopy @ 85% RH: unit not given here
[4] = Loss on drying / initial water content; format: physicochemical; parameters: Initial water content: unit not given here
[5] = Stability in buffer solutions and in solid state; format: physicochemical
[6] = Decomposition temperature; format: physicochemical; parameters: unit not given here; conditions: comparison table, Example 7
[7] = Known multiple solid forms; format: physicochemical; conditions: comparison table, Example 7
[8] = Particle size measurements by Fraunhofer light diffraction; format: physicochemical; conditions: N=8
Procedure: Mean particle sizes, X90 and X10 are typically measured by Fraunhofer light diffraction.
To about 0.5 g of test substance add some drops of the dispersing aid (1% Octastat 5000 (Octel Corp.) in white spirit (Sangajol, Schweizerhall Chemie)). Mix intensively on a vortex mixer, in order to wet the substance thoroughly and to form a smooth and homogeneous paste. Dilute the paste with white spirit to a final volume of 3-6 ml and mix the dispersion again. Determine the cumulative volume distribution using a laser diffraction instrument, e.g. determine the particle sizes at the undersize values of 10%, 50% and 90% (x10, x50, x90). Measuring device: Sympatec HELOS (Sympatec GmbH; focal length: 500 mm, optical concentration≥5%, duration of measurement: 40 sec).
Dispersion device: Suspension cell (QUIXEL, Sympatec GmbH).

[9] = Stability of the active ingredient in tablets; format: physicochemical; conditions: tablets where only certain lubricants are used
Procedure: It is particularly important that the active ingredient remains chemically stable over a potential long shelf time. When assessing storage stability, relative amounts of individual degradation products compared to the total amount of active ingredient are taken into consideration. Individual degradation products should all be present in low relative amounts to ensure that no single product can reach a non-acceptable level, e.g. when the active ingredient is administered in high doses.

[10] = male Wistar rats (n=8), mean (text: ± SD)
[11] = male Wistar rats, individual rats 01-08, listed as mono-fumarate, 10 mg/kg

Cc1ccc(-c2ccc(O[C@H]3CN4CCC3CC4)cn2)cc1.O=C(O)/C=C/C(=O)O [Compound B, (R)-3-(6-(4-methylphenyl)-pyridin-3-yloxy)-1-aza-bicyclo[2.2.2]octane hydrogenfumarate]
Plasma (pmoles/ml ± SD) ([1]; 0.25 hour): 14.7 ± 1.1 pmol/mL | Plasma (pmoles/ml ± SD) ([1]; 0.5 hour): 49.4 ± 21.9 pmol/mL | Plasma (pmoles/ml ± SD) ([1]; 1 hour): 67.6 ± 22.6 pmol/mL | Plasma (pmoles/ml ± SD) ([1]; 2 hour): 75.2 ± 36.8 pmol/mL | Plasma (pmoles/ml ± SD) ([1]; 4 hour): 27.5 ± 13.3 pmol/mL | Plasma (pmoles/ml ± SD) ([1]; 8 hour): 8.1 ± 3.0 pmol/mL | Plasma (pmoles/ml ± SD) ([1]; 24 hour): 0.8 ± 0.7 pmol/mL | Concentration of free form in plasma, Mean All ([2]; male Wistar rats (n=8), 0.25 h, mean): 149 ng/mL | Concentration of free form in plasma, Mean All ([2]; male Wistar rats (n=8), 0.5 h, mean): 132 ng/mL | Concentration of free form in plasma, Mean All ([2]; male Wistar rats (n=8), 1 h, mean): 77.4 ng/mL | Concentration of free form in plasma, Mean All ([2]; male Wistar rats (n=8), 2 h, mean): 38.9 ng/mL | Concentration of free form in plasma, Mean All ([2]; male Wistar rats (n=8), 3 h, mean): 19.5 ng/mL | Concentration of free form in plasma, Mean All ([2]; male Wistar rats (n=8), 4 h, mean): 10.6 ng/mL | Concentration of free form in plasma, Mean All ([2]; male Wistar rats (n=8), 6 h, mean): 5.10 ng/mL | Concentration of free form in plasma, Mean All ([2]; male Wistar rats (n=8), 8 h, mean): 2.54 ng/mL | Concentration of free form in plasma, Mean All ([2]; male Wistar rats (n=8), 24 h, mean): 0.320 ng/mL | Tmax (h), all rats ([2]; male Wistar rats (n=8), Median [range], listed as mono-fumarate): 0.25 [0.25-0.50]^a h | Cmax/Dose (ng/mL)/(mg/kg), Mean All ([2]; male Wistar rats (n=8), mean): 16.5 (ng/mL)/(mg/kg) | AUClast (h · ng/mL), Mean All [2, 10]: 249 ± 42 ng·h/mL | Cmax (ng/mL), Mean All [2, 10]: 161 ± 53 ng/mL | Concentration of free form in plasma ([2]; male Wistar rats, 0.25 h, individual rats 01-08): 89.0 ng/mL | Concentration of free form in plasma ([2]; male Wistar rats, 0.25 h, individual rats 01-08, listed as mono-fumarate, 10 mg/kg): 167 ng/mL and 162 ng/mL and 77.8 ng/mL and 242 ng/mL and 204 ng/mL and 93.3 ng/mL and 153 ng/mL | Concentration of free form in plasma ([2]; male Wistar rats, 0.5 h, individual rats 01-08): 130 ng/mL | Concentration of free form in plasma ([2]; male Wistar rats, 0.5 h, individual rats 01-08, listed as mono-fumarate, 10 mg/kg): 104 ng/mL and 78.4 ng/mL and 99.7 ng/mL and 143 ng/mL and 179 ng/mL and 184 ng/mL and 138 ng/mL | Concentration of free form in plasma ([2]; male Wistar rats, 1 h, individual rats 01-08, listed as mono-fumarate, 10 mg/kg): 67.1 ng/mL and 88.8 ng/mL and 41.3 ng/mL and 62.8 ng/mL and 83.2 ng/mL and 80.8 ng/mL and 101 ng/mL and 94.2 ng/mL | Concentration of free form in plasma ([2]; male Wistar rats, 2 h, individual rats 01-08, listed as mono-fumarate, 10 mg/kg): 27.4 ng/mL and 39.2 ng/mL and 37.8 ng/mL and 24.6 ng/mL and 47.1 ng/mL and 37.6 ng/mL and 54.8 ng/mL and 42.6 ng/mL | Concentration of free form in plasma ([2]; male Wistar rats, 3 h, individual rats 01-08, listed as mono-fumarate, 10 mg/kg): 12.4 ng/mL and 17.7 ng/mL and 25.3 ng/mL and 11.7 ng/mL and 19.6 ng/mL and 20.6 ng/mL and 25.1 ng/mL and 23.2 ng/mL | Concentration of free form in plasma ([2]; male Wistar rats, 4 h, individual rats 01-08, listed as mono-fumarate, 10 mg/kg): 9.06 ng/mL and 10.6 ng/mL and 13.3 ng/mL and 5.90 ng/mL and 9.71 ng/mL and 11.8 ng/mL and 13.0 ng/mL and 11.1 ng/mL | Concentration of free form in plasma ([2]; male Wistar rats, 6 h, individual rats 01-08, listed as mono-fumarate, 10 mg/kg): 7.49 ng/mL and 3.47 ng/mL and 7.63 ng/mL and 5.79 ng/mL and 4.29 ng/mL and 4.24 ng/mL and 4.05 ng/mL and 3.87 ng/mL | Concentration of free form in plasma ([2]; male Wistar rats, 8 h, individual rats 01-08, listed as mono-fumarate, 10 mg/kg): 2.91 ng/mL and 2.35 ng/mL and 3.62 ng/mL and 2.62 ng/mL and 2.46 ng/mL and 1.94 ng/mL and 2.38 ng/mL and 2.07 ng/mL | AUClast [2, 11]: 202 ng·h/mL and 259 ng·h/mL and 212 ng·h/mL and 188 ng·h/mL and 269 ng·h/mL and 292 ng·h/mL and 298 ng·h/mL and 272 ng·h/mL | Cmax [2, 11]: 167 ng/mL and 162 ng/mL and 78.4 ng/mL and 99.7 ng/mL and 242 ng/mL and 204 ng/mL and 184 ng/mL and 153 ng/mL | Cmax/Dose (ng/mL)/(mg/kg) [2, 11]: 17.2 (ng/mL)/(mg/kg) and 16.4 (ng/mL)/(mg/kg) and 7.88 (ng/mL)/(mg/kg) and 10.2 (ng/mL)/(mg/kg) and 25.2 (ng/mL)/(mg/kg) and 21.1 (ng/mL)/(mg/kg) and 18.3 (ng/mL)/(mg/kg) and 15.7 (ng/mL)/(mg/kg) | Tlast [2, 11]: 8.0 h (2×) and 24.0 h (6×) | Tmax [2, 11]: 0.25 h (5×) and 0.50 h (3×) | T½ [2, 11]: 2.44 h and 5.02 h and 3.62 h and 3.71 h and 2.02 h and 3.97 h and 5.51 h | T½ (h), Mean All ([2]; male Wistar rats, mean): 3.76 h | hygroscopicity (in words) [3]: slightly hygroscopic | moisture gain ([3]; at 85% relative humidity (RH)): 0.5% | Hygroscopy @ 85% RH ([3]; comparison table, Example 7): 0.5 | Loss on drying (LOD) of a sample [4]: < 0.03% | Initial water content ([4]; comparison table, Example 7): <0.5 | solid-state stability [5]: good | stability in buffer solutions ([5]; many buffer solutions, various pH values): good stability | Decomposition temperature [6]: 207 | Known Multiple forms [7]: No | particle size x10 [8]: 5.6±0.5 μm | particle size x50 (mean particle size) [8]: 26.8±1.3 μm | particle size x90 [8]: 77.3±3.3 μm | stability in tablets [9]: very stable

Reference: patent US10421755B2, “Salts of aza-bicyclic di-aryl ethers and methods to make them or their precursors” (Novartis AG, priority 2011, dated 2019)
